Source: patent US9770026B2, “Substituted pyrimidine compound and uses thereof” (Shenyang Sinochem Agrochemicals R&D Co., Ltd., priority 2012, dated 2017)

Experiments:
Diamond back moth = test: insecticidal activity against diamond back moth, airbrush spray; type: in vivo
How it was run: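 Airbrush leaf-disc spray test: both faces of 2 cm cabbage discs received 0.5 ml of test solution at 0.7 kg/cm^2. Solutions were made in acetone:methanol (1:1) and brought to concentration with 0.1% Tween 80 in water. Ten second-instar larvae per disc, triplicates, were held at 25° C and 60˜70% R.H., with mortality recorded at 72 hrs.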

armyworm = test: bioactivity test against armyworm, airbrush spray; type: in vivo
[1] = test system: Green peach aphids (Myzus Persicae Sulzer); test: bioactivity test against green peach aphid, airbrush foliar spray; type: in vivo
How it was run: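 Aphids (15-30 per cabbage leaf disc) on moist filter paper were airbrush-sprayed at 10 psi, 0.5 mL, with compound from acetone:methanol (1:1) diluted in water with 0.1% tween 80. Held at 25±1 C, 60±5% RH; survivors counted after 48 hrs to give death rates.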

carmine spider mite = test: bioactivity test against carmine spider mite, airbrush spray; type: in vivo
How it was run: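 Broadbean seedlings infested with adult mites were sprayed with compound (acetone/methanol stock diluted in 0.1% Tween 80 water) by airbrush at 0.7 kg/cm^2, 0.5 ml. Three replicates were run. Mortality was scored after 72 hrs.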

corn rust = test: protectant activity in vivo against corn rust
wheat powdery mildew = test: protectant activity in vivo against wheat powdery mildew; conditions: for pest or weed control at 6.25 µg/mL: read-out: control effect against wheat powdery mildew (%), 6.25 mg/L; for pest or weed control at 6.25 µg/mL / pest or weed control at 25 µg/mL / pest or weed control at 100 µg/mL / pest or weed control at 400 µg/mL: protectant activity; for pest or weed control at 25 µg/mL: read-out: control effect against wheat powdery mildew (%), 25 mg/L; for pest or weed control at 100 µg/mL: read-out: control effect against wheat powdery mildew (%), 100 mg/L; for pest or weed control at 400 µg/mL: read-out: control effect against wheat powdery mildew (%), 400 mg/L
cucumber downy mildew = test: protectant activity in vivo against cucumber downy mildew; conditions: for pest or weed control at 25 ppm: read-out: protectant activity against cucumber downy mildew in vivo, 25 ppm; for pest or weed control at 100 ppm: read-out: protectant activity against cucumber downy mildew in vivo, 100 ppm; for pest or weed control at 400 ppm: read-out: protectant activity against cucumber downy mildew in vivo, 400 ppm
[2] = 600 ppm, mortality after 72 hrs
[3] = 10 ppm, death rate after 48 hrs
[4] = 100 ppm, death rate after 48 hrs
[5] = 600 ppm, death rate after 48 hrs
[6] = 100 ppm, mortality after 72 hrs

FC(F)(F)c1cnc(Oc2ccc(CCNc3ncnc(Cl)c3Cl)cc2)c(Cl)c1 [CK72, reference compound]
80%: pest or weed control at 100 µg/mL (corn rust; Zea mays, 168 h, read-out: control effect against corn rust (%), 100 mg/L, protectant activity)
13%: pest or weed control at 600 µg/mL (carmine spider mite; Tetranychus cinnabarinus, 72 h, 600 mg/L, contrastive test, read-out: Insecticidal activity against carmine spider mite (% ))
55%: pest or weed control at 600 µg/mL ([1]; Myzus persicae, foliar, 48 h, 600 mg/L, contrastive test, read-out: Insecticidal activity against peach aphid (%))
0%: pest or weed control at 600 µg/mL (Diamond back moth; 72 h, 600 mg/L) | pest or weed control at 6.25 µg/mL (corn rust; Zea mays, 168 h, read-out: control effect against corn rust (%), 6.25 mg/L, protectant activity)
70%: pest or weed control at 100 µg/mL (wheat powdery mildew; Triticum aestivum, 168 h)
71%: pest or weed control at 600 µg/mL (armyworm; 72 h, 600 mg/L, read-out: Insecticidal activity against armyworm (%))
40%: pest or weed control at 50 µg/mL (cucumber downy mildew; Cucumis sativus, 168 h, read-out: control effect against cucumber downy mildew (%), 50 mg/L, protectant activity)
50%: pest or weed control at 6.25 µg/mL (wheat powdery mildew; Triticum aestivum, 168 h)
20%: pest or weed control at 25 µg/mL (corn rust; Zea mays, 168 h, read-out: control effect against corn rust (%), 25 mg/L, protectant activity) | pest or weed control at 25 µg/mL (cucumber downy mildew; Cucumis sativus, 168 h, read-out: control effect against cucumber downy mildew (%), 25 mg/L, protectant activity)
100%: pest or weed control at 400 µg/mL (corn rust; Zea mays, 168 h, read-out: control effect against corn rust (%), 400 mg/L, protectant activity) | pest or weed control at 400 µg/mL (wheat powdery mildew; Triticum aestivum, 168 h) | pest or weed control at 100 µg/mL (cucumber downy mildew; Cucumis sativus, 168 h, read-out: control effect against cucumber downy mildew (%), 100 mg/L, protectant activity) | pest or weed control at 400 µg/mL (cucumber downy mildew; Cucumis sativus, 168 h, read-out: control effect against cucumber downy mildew (%), 400 mg/L, protectant activity)
60%: pest or weed control at 25 µg/mL (wheat powdery mildew; Triticum aestivum, 168 h)

CCc1ncnc(NCCc2ccc(Oc3ncc(Cl)cc3Cl)cc2)c1Cl [Compound I-583]
80 to 99%: pest or weed control at 10 ppm ([1]; Myzus persicae, foliar, 48 h, 10 ppm, death rate after 48 hrs) | pest or weed control at 100 ppm (wheat powdery mildew; Triticum aestivum, 168 h, read-out: protectant activity against wheat powdery mildew in vivo, 100 ppm) | pest or weed control at 400 ppm (wheat powdery mildew; Triticum aestivum, 168 h, read-out: protectant activity against wheat powdery mildew in vivo, 400 ppm) | pest or weed control at 50 ppm (cucumber downy mildew; Cucumis sativus, 168 h, read-out: protectant activity against cucumber downy mildew in vivo, 50 ppm)
100%: pest or weed control at 600 ppm (Diamond back moth; 72 h, 600 ppm, mortality after 72 hrs, read-out: control (test results against diamond back moth)) | pest or weed control at 600 ppm (armyworm; 72 h, 600 ppm, mortality after 72 h) | pest or weed control at 100 ppm ([1]; Myzus persicae, foliar, 48 h, 100 ppm, death rate after 48 hrs) | pest or weed control at 600 ppm ([1]; Myzus persicae, foliar, 48 h, 600 ppm, death rate after 48 hrs) | pest or weed control at 600 ppm (carmine spider mite; Tetranychus cinnabarinus, 72 h, 600 ppm, mortality after 72 hrs) | pest or weed control at 25 ppm (corn rust; Zea mays, 168 h, read-out: protectant activity against corn rust in vivo, 25 ppm) | pest or weed control at 100 ppm (corn rust; Zea mays, 168 h, read-out: protectant activity against corn rust in vivo, 100 ppm) | pest or weed control at 400 ppm (corn rust; Zea mays, 168 h, read-out: protectant activity against corn rust in vivo, 400 ppm) | pest or weed control at 25 ppm (cucumber downy mildew; Cucumis sativus, 168 h) | pest or weed control at 100 ppm (cucumber downy mildew; Cucumis sativus, 168 h) | pest or weed control at 400 ppm (cucumber downy mildew; Cucumis sativus, 168 h)

Cc1ncnc(NCCc2ccc(Oc3ccc(C(F)(F)F)cn3)cc2)c1Cl [Compound I-6732]
80 to 99%: pest or weed control at 6.25 ppm (corn rust; Zea mays, 168 h, read-out: protectant activity against corn rust in vivo, 6.25 ppm)
100%: control (test results against diamond back moth) (Diamond back moth; [2]) | control (test results against armyworm) (armyworm; 600 ppm, mortality after 72 h) | control (test results against green peach aphid) [1, 3] | control (test results against green peach aphid) [1, 4] | control (test results against green peach aphid) [1, 5] | control against carmine spider mite (carmine spider mite; [2]) | pest or weed control at 100 ppm (carmine spider mite; Tetranychus cinnabarinus, 72 h, 100 ppm, mortality after 72 hrs) | protectant activity against corn rust in vivo (corn rust; 100 ppm) | protectant activity against corn rust in vivo (corn rust; 400 ppm) | protectant activity against wheat powdery mildew in vivo (wheat powdery mildew; 400 ppm) | protectant activity against cucumber downy mildew in vivo (cucumber downy mildew; 25 ppm) | protectant activity against cucumber downy mildew in vivo (cucumber downy mildew; 100 ppm) | protectant activity against cucumber downy mildew in vivo (cucumber downy mildew; 400 ppm)

CCc1ncnc(NCCc2ccc(Oc3ccc(C(F)(F)F)cn3)cc2)c1Cl [Compound I-6740]
85%: Insecticidal activity against carmine spider mite (% ) (carmine spider mite; 10 mg/L, contrastive test)
80 to 99%: pest or weed control at 10 ppm (carmine spider mite; Tetranychus cinnabarinus, 72 h, 10 ppm, mortality after 72 hrs)
100%: control (test results against diamond back moth) (Diamond back moth; [6]) | control (test results against diamond back moth) (Diamond back moth; [2]) | control (test results against armyworm) (armyworm; 100 ppm, mortality after 72 h) | control (test results against armyworm) (armyworm; 600 ppm, mortality after 72 h) | control (test results against green peach aphid) ([1]; 5 ppm, death rate after 48 hrs) | control (test results against green peach aphid) [1, 3] | control (test results against green peach aphid) [1, 4] | control (test results against green peach aphid) [1, 5] | Insecticidal activity against carmine spider mite (% ) (carmine spider mite; 100 mg/L, contrastive test) | Insecticidal activity against carmine spider mite (% ) (carmine spider mite; 600 mg/L, contrastive test) | control against carmine spider mite (carmine spider mite; [6]) | control against carmine spider mite (carmine spider mite; [2]) | protectant activity against corn rust in vivo (corn rust; 100 ppm) | protectant activity against corn rust in vivo (corn rust; 400 ppm) | protectant activity against wheat powdery mildew in vivo (wheat powdery mildew; 25 ppm) | protectant activity against wheat powdery mildew in vivo (wheat powdery mildew; 100 ppm) | protectant activity against wheat powdery mildew in vivo (wheat powdery mildew; 400 ppm) | pest or weed control at 100 ppm (cucumber downy mildew; Cucumis sativus, 168 h) | pest or weed control at 400 ppm (cucumber downy mildew; Cucumis sativus, 168 h)

CCc1ncnc(NCCc2ccc(Oc3ccc(C(F)(F)F)cn3)cc2)c1Cl [Compound I-6765]
84%: Insecticidal activity against peach aphid (%) ([1]; 1.25 mg/L, contrastive test)
100%: control (test results against diamond back moth) (Diamond back moth; [6]) | control (test results against diamond back moth) (Diamond back moth; [2]) | control (test results against armyworm) (armyworm; 600 ppm, mortality after 72 h) | pest or weed control at 100 ppm (armyworm; 72 h, 100 ppm, mortality after 72 h) | Insecticidal activity against peach aphid (%) ([1]; 2.5 mg/L, contrastive test) | Insecticidal activity against peach aphid (%) ([1]; 5 mg/L, contrastive test) | Insecticidal activity against peach aphid (%) ([1]; 10 mg/L, contrastive test) | Insecticidal activity against peach aphid (%) ([1]; 100 mg/L, contrastive test) | Insecticidal activity against peach aphid (%) ([1]; 600 mg/L, contrastive test) | control (test results against green peach aphid) ([1]; 2.5 ppm, death rate after 48 hrs) | control (test results against green peach aphid) ([1]; 5 ppm, death rate after 48 hrs) | control (test results against green peach aphid) [1, 3] | control (test results against green peach aphid) [1, 4] | control (test results against green peach aphid) [1, 5] | Insecticidal activity against carmine spider mite (% ) (carmine spider mite; 10 mg/L, contrastive test) | Insecticidal activity against carmine spider mite (% ) (carmine spider mite; 100 mg/L, contrastive test) | Insecticidal activity against carmine spider mite (% ) (carmine spider mite; 600 mg/L, contrastive test) | control against carmine spider mite (carmine spider mite; 10 ppm, mortality after 72 hrs) | control against carmine spider mite (carmine spider mite; [6]) | control against carmine spider mite (carmine spider mite; [2]) | protectant activity against corn rust in vivo (corn rust; 100 ppm) | protectant activity against corn rust in vivo (corn rust; 400 ppm) | protectant activity against wheat powdery mildew in vivo (wheat powdery mildew; 6.25 ppm) | protectant activity against wheat powdery mildew in vivo (wheat powdery mildew; 100 ppm) | protectant activity against wheat powdery mildew in vivo (wheat powdery mildew; 400 ppm) | pest or weed control at 6.25 µg/mL (wheat powdery mildew; Triticum aestivum, 168 h) | pest or weed control at 25 µg/mL (wheat powdery mildew; Triticum aestivum, 168 h) | pest or weed control at 100 µg/mL (wheat powdery mildew; Triticum aestivum, 168 h) | pest or weed control at 400 µg/mL (wheat powdery mildew; Triticum aestivum, 168 h) | pest or weed control at 25 ppm (wheat powdery mildew; Triticum aestivum, 168 h, read-out: protectant activity against wheat powdery mildew in vivo, 25 ppm) | protectant activity against cucumber downy mildew in vivo (cucumber downy mildew; 50 ppm) | protectant activity against cucumber downy mildew in vivo (cucumber downy mildew; 100 ppm) | protectant activity against cucumber downy mildew in vivo (cucumber downy mildew; 400 ppm) | pest or weed control at 25 ppm (cucumber downy mildew; Cucumis sativus, 168 h)
80 to 99%: pest or weed control at 6.25 ppm (cucumber downy mildew; Cucumis sativus, 168 h, read-out: protectant activity against cucumber downy mildew in vivo, 6.25 ppm) | pest or weed control at 12.5 ppm (cucumber downy mildew; Cucumis sativus, 168 h, read-out: protectant activity against cucumber downy mildew in vivo, 12.5 ppm)
